# Measured values taken from patent US5242916A, “Method for treatment of neurodegenerative diseases” (R. J. Reynolds Tobacco Company, priority 1992, dated 1993).
# Experiments:
# [1] = system: synaptosomes from the striatal area of rat brain; assay: [3H]-Dopamine release from rat striatal synaptosomes; type: biochemical, Sprague-Dawley rats; conditions: Percent release relative to (S)(-)nicotine at equal concentration, 0.2 ml of a 10 μM solution of ligand
# Method: Dopamine release was measured by preparing synaptosomes from the striatal area of rat brain obtained from Sprague-Dawley rats generally according to the procedures set forth by Nagy, et al., J. Neurochem., Vol. 43, pp. 1114-1123 (1984). Striata from 4 rats were homogenized in 2 ml of 0.32M sucrose buffered with 5 mM HEPES (pH 7.5), using a glass-teflon tissue grinder. The homogenate was diluted to 5 ml with additional homogenization solution and centrifuged at 1000×g for 10 min. This procedure was repeated on the new pellet and the resulting supernatant was centrifuged at 12,000×g for 20 min. […] Using this method, 30 to 90 percent of the dopamine was taken up into the synaptosomes, as determined by scintillation counting following filtration through glass fiber filters soaked with 0.5 percent polyethyleneimine. […] After the addition of a 0.2 ml of a 10 μM solution of ligand, the perfusate was collected into scintillation vials at 1 min. intervals and the dopamine released was quantified by scintillation counting. Peaks of radioactivity released above background were summed and the average basal release during that time was subtracted from the total. Release was expressed as a percentage of release obtained with an equal concentration of (S)-(-)-nicotine.
# [2] = target: high affinity nicotinic receptors; assay: Inhibition of L-[3H]nicotine binding to mouse brain membrane preparations; parameters: species or system Mice (DBA strain); conditions: mouse brain membranes, 2 hr at 4° C., 10 nM L-[3H]nicotine, Ki calculated from IC50 by the method of Cheng et al.
# Method: Mice (DBA strain) were maintained on a 12 hour light/dark cycle and were allowed free access to water and food supplied by Wayne Lab Blox, Madison, Wis. Animals used in the present studies were 60 to 90 days of age and weighed 20 to 25 g. Brain membrane preparations were obtained from pooled brain tissue of both males and females.
# Mice were killed by cervical dislocation. Brains were removed and placed on an ice-cold platform. […] Protein was determined by the method of Lowry, et al., J. Biol. Chem., Vol. 193, pp. 265-275 (1951), using bovine serum albumin as the standard.
# The binding of L-[^3 H]nicotine was measured using a modification of the method of Romano, et al., Science, Vol. 210, pp. 647-650 (1980) as described previously by Marks, et al., Mol. Pharmacol., Vol. 30, pp. 427-436 (1986). The binding of L-[^3 H]nicotine was measured using a 2 hr. incubation at 4° C. […] Nonspecific binding was determined by inclusion of 10 μM nonradioactive nicotine in the incubations. The inhibition of L-[^3 H]nicotine binding by test compounds was determined by including one of eight different concentrations of the test compound in the incubation. […] Inhibition constants (Ki values) were calculated from the IC50 values using the method of Cheng, et al., Biochem. Pharmacol., Vol. 22, pp. 3099-3108 (1973). […]
SMILES,Dopamine Release [1],Ki [2]
O=c1cccc2n1C[C@@H]1CNC[C@H]2C1 [cytisine],82%,0.4 nM
CN1CC2CC(C1)c1cccc(=O)n1C2 (stereo not shown) [N-methylcytisine],29%,36 nM
